Source: PubChem BioAssay AID2060360 (Molecular Pharmacology Branch, DTP, NCI, 2025)
“And” between values parts separate entries of the source, which are not always exact repeats. Equal values may be shown once.

Tested on: 282377-053-R-J1-PDC tumor spheroids, viability
Experiment: Anticancer human tumor 282377-053-R-J1-PDC patient-derived colon adenocarcinoma cell line growth inhibition [TAK]
Details: spheroids with HUVEC and MSC; for viability, T/C: stronger effect = lower value; active = viability on the fitted dose curve at most 10% of control; inactive = the rest
Procedure, shortened: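 Tumor cells were grown as spheroids with HUVEC and hMSC (60:25:15) and treated with targeted agents combined with TAK-243 or ipatasertib. Drugs were tested in half-log steps down from near the clinical Cmax, or from 10 microM where Cmax was unknown.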

[1] = curve of first compound, second compound 0.3 µM
[2] = curve of first compound, second compound 0.949 µM
[3] = curve of first compound, second compound 3 µM
[4] = curve of first compound, second compound 9.49 µM
[5] = curve of first compound, second compound 30 µM
[6] = second compound 0.3 µM, first compound 0.00316 µM
[7] = second compound 0.3 µM, first compound 0.01 µM
[8] = second compound 0.3 µM, first compound 0.0316 µM
[9] = second compound 0.3 µM, first compound 0.1 µM
[10] = second compound 0.949 µM, first compound 0.00316 µM
[11] = second compound 0.949 µM, first compound 0.01 µM
[12] = second compound 0.949 µM, first compound 0.0316 µM
[13] = second compound 0.949 µM, first compound 0.1 µM
[14] = second compound 3 µM, first compound 0.00316 µM
[15] = second compound 3 µM, first compound 0.01 µM
[16] = second compound 3 µM, first compound 0.0316 µM
[17] = second compound 3 µM, first compound 0.1 µM
[18] = second compound 9.49 µM, first compound 0.00316 µM
[19] = second compound 9.49 µM, first compound 0.01 µM
[20] = second compound 9.49 µM, first compound 0.0316 µM
[21] = second compound 9.49 µM, first compound 0.1 µM
[22] = second compound 30 µM, first compound 0.00316 µM
[23] = second compound 30 µM, first compound 0.01 µM
[24] = second compound 30 µM, first compound 0.0316 µM
[25] = second compound 30 µM, first compound 0.1 µM
[26] = second compound 0.3 µM, first compound 0.316 µM
[27] = second compound 0.3 µM, first compound 1 µM
[28] = second compound 0.949 µM, first compound 0.316 µM
[29] = second compound 0.949 µM, first compound 1 µM
[30] = second compound 3 µM, first compound 0.316 µM
[31] = second compound 3 µM, first compound 1 µM
[32] = second compound 9.49 µM, first compound 0.316 µM
[33] = second compound 9.49 µM, first compound 1 µM
[34] = second compound 30 µM, first compound 0.316 µM
[35] = second compound 30 µM, first compound 1 µM
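Note: spheroids exposed to drugs for seven days before readout.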

COC1CC2CCC(C)C(O)(O2)C(=O)C(=O)N2CCCCC2C(=O)OC(C(C)CC2CCC(OCCO)C(OC)C2)CC(=O)C(C)C=C(C)C(O)C(OC)C(=O)C(C)CC(C)C=CC=CC=C1C (configuration not stated) + CC(C)NCC(C(=O)N1CCN(c2ncnc3c2C(C)CC3O)CC1)c1ccc(Cl)cc1
inactive: viability, T/C (second compound 0.3 µM, first compound 0.000316 µM) 93.1% | viability, T/C (second compound 0.3 µM, first compound 0.001 µM) 91.7% | viability, T/C [6] 94% | viability, T/C [7] 95% | viability, T/C [8] 93.7% | viability, T/C [9] 91.4% | viability, T/C (second compound 0.949 µM, first compound 0.000316 µM) 93.3% | viability, T/C (second compound 0.949 µM, first compound 0.001 µM) 87% | viability, T/C [10] 91.8% | viability, T/C [11] 91.8% | viability, T/C [12] 87.7% | viability, T/C [13] 89.4% | viability, T/C (second compound 3 µM, first compound 0.000316 µM) 82.2% | viability, T/C (second compound 3 µM, first compound 0.001 µM) 87.6% | viability, T/C [14] 80.9% | viability, T/C [15] 82.2% | viability, T/C [16] 82.2% | viability, T/C [17] 79.1% | viability, T/C (second compound 9.49 µM, first compound 0.000316 µM) 81.2% | viability, T/C (second compound 9.49 µM, first compound 0.001 µM) 77.8% | viability, T/C [18] 73.5% | viability, T/C [19] 74.9% | viability, T/C [20] 65.8% | viability, T/C [21] 60.4% | viability, T/C (second compound 30 µM, first compound 0.000316 µM) 61.6% | viability, T/C (second compound 30 µM, first compound 0.001 µM) 64.3% | viability, T/C [22] 55.8% | viability, T/C [23] 48.3% | viability, T/C [24] 39.9% | viability, T/C [25] 31%
8.56 nM: IC50 [5]
> 100 nM: IC50 [1] | IC50 [2] | IC50 [3] | IC50 [4]

COc1c(OCCCN2CCOCC2)ccc2c3n(c(=NC(=O)c4cnc(N)nc4)nc12)CCN3
> 1000 nM and 555 nM: IC50 (curve of compound)
inactive: viability, T/C (compound 0.00316 µM) 101% | viability, T/C (compound 0.01 µM) 100% and 94.6% | viability, T/C (compound 0.0316 µM) 98.1% and 97.2% | viability, T/C (compound 0.1 µM) 98% and 87.7% | viability, T/C (compound 0.316 µM) 97.2% and 80.9% | viability, T/C (compound 1 µM) 56.2% and 19.3%

COc1c(OCCCN2CCOCC2)ccc2c3n(c(=NC(=O)c4cnc(N)nc4)nc12)CCN3 + CC(C)NCC(C(=O)N1CCN(c2ncnc3c2C(C)CC3O)CC1)c1ccc(Cl)cc1
active: viability, T/C [35] 4.24%
inactive: viability, T/C [6] 95% | viability, T/C [7] 96% | viability, T/C [8] 91.8% | viability, T/C [9] 91.1% | viability, T/C [26] 87.9% | viability, T/C [27] 64.3% | viability, T/C [10] 94.9% | viability, T/C [11] 87.7% | viability, T/C [12] 87.6% | viability, T/C [13] 81.3% | viability, T/C [28] 82.7% | viability, T/C [29] 33.2% | viability, T/C [14] 86.1% | viability, T/C [15] 88.3% | viability, T/C [16] 80.5% | viability, T/C [17] 78.4% | viability, T/C [30] 73.4% | viability, T/C [31] 13.6% | viability, T/C [18] 82.3% | viability, T/C [19] 79.1% | viability, T/C [20] 73.2% | viability, T/C [21] 66.8% | viability, T/C [32] 35.4% | viability, T/C [33] 11.4% | viability, T/C [22] 66.4% | viability, T/C [23] 65.8% | viability, T/C [24] 48% | viability, T/C [25] 29.7% | viability, T/C [34] 8.22%
674 nM: IC50 [2]
32.3 nM: IC50 [5]
> 1000 nM: IC50 [1]
489 nM: IC50 [3]
182 nM: IC50 [4]

Cc1nc(NC(=O)N2CCCC2C(N)=O)sc1-c1ccnc(C(C)(C)C(F)(F)F)c1 (configuration not stated) + CC(C)NCC(C(=O)N1CCN(c2ncnc3c2C(C)CC3O)CC1)c1ccc(Cl)cc1
> 10000 nM: IC50 [1] | IC50 [2] | IC50 [3] | IC50 [4]
5510 nM: IC50 [5]
inactive: viability, T/C [8] 99.7% | viability, T/C [9] 91.4% | viability, T/C [26] 91.7% | viability, T/C [27] 89.8% | viability, T/C (second compound 0.3 µM, first compound 3.16 µM) 79.8% | viability, T/C (second compound 0.3 µM, first compound 10 µM) 70.4% | viability, T/C [12] 87.2% | viability, T/C [13] 91.5% | viability, T/C [28] 84% | viability, T/C [29] 81% | viability, T/C (second compound 0.949 µM, first compound 3.16 µM) 79.1% | viability, T/C (second compound 0.949 µM, first compound 10 µM) 81.3% | viability, T/C [16] 83.5% | viability, T/C [17] 83.9% | viability, T/C [30] 80% | viability, T/C [31] 77.3% | viability, T/C (second compound 3 µM, first compound 3.16 µM) 76.3% | viability, T/C (second compound 3 µM, first compound 10 µM) 77.3% | viability, T/C [20] 81.7% | viability, T/C [21] 81% | viability, T/C [32] 76.1% | viability, T/C [33] 75.8% | viability, T/C (second compound 9.49 µM, first compound 3.16 µM) 69.6% | viability, T/C (second compound 9.49 µM, first compound 10 µM) 64% | viability, T/C [24] 71.7% | viability, T/C [25] 69.8% | viability, T/C [34] 66.4% | viability, T/C [35] 58% | viability, T/C (second compound 30 µM, first compound 3.16 µM) 56.1% | viability, T/C (second compound 30 µM, first compound 10 µM) 45.1%
